Measurements from PMC10412597, “Small molecule branched-chain ketoacid dehydrogenase kinase (BDK) inhibitors with opposing effects on BDK protein levels” (Nature Communications, 2023).

How the values were obtained:
[1] = target: T1, Adrenergic Beta 2 Adrenoceptor (Homo sapiens, UniProt P07550); parameters: Cerep Bioprint off-target panel, functional receptor agonism or antagonism
T1 construct: gene ADRB2
Outline: (§1)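 Off-target profiling of BDK inhibitor candidates: the receptor targets were run in a CEREP panel and ABL1 in a kinase panel.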

[2] = target: T2, Serotonin 5-HT1b Receptor (Homo sapiens, UniProt P28222); parameters: Cerep Bioprint off-target panel, functional receptor agonism or antagonism; conditions: agonist
T2 construct: gene HTR1B
Outline: as §1

Adenosine A2a Receptor = target: T3, Adenosine A2a Receptor (Homo sapiens, UniProt P29274); parameters: Cerep Bioprint off-target panel, functional receptor agonism or antagonism; conditions: agonist
T3 construct: gene ADORA2A
Outline: as §1

[3] = target: T4, Adrenergic Alpha 2b Adrenoceptor (Homo sapiens, UniProt P18089); parameters: Cerep Bioprint off-target panel, functional receptor agonism or antagonism
T4 construct: gene ADRA2B
T4 sequence (P18089 1-450): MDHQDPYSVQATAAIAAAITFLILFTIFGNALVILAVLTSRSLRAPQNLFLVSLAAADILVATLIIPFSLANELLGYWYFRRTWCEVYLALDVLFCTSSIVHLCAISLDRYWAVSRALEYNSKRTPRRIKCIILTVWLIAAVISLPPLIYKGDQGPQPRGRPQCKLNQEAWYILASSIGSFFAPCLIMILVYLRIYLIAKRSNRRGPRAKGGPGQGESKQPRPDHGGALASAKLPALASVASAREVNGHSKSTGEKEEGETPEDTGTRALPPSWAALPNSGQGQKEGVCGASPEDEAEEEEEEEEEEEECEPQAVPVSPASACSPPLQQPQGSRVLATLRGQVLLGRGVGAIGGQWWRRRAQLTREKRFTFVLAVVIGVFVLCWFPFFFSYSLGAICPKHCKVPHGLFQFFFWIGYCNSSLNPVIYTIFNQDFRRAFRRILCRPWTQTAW
Outline: as §1

Cannabinoid CB1 = target: T5, Cannabinoid CB1 (Homo sapiens, UniProt P21554); experiment: cell-based; parameters: Cerep Bioprint off-target panel, functional receptor agonism or antagonism
T5 construct: gene CNR1
Description: (§2) To discover a potent and selective BDK inhibitor, a subset of the Pfizer compound collection was screened. […] Off target activity was assessed in both CEREP and kinase panels (Supplementary Tables 2, 3).

Kdr Kinase (VEGFR2) = Kdr Kinase (VEGFR2) (Homo sapiens, UniProt P35968); experiment: biochemical; parameters: Cerep Bioprint off-target panel, enzyme or kinase inhibition
Description: as §2

T1 sequence (P07550 whole entry): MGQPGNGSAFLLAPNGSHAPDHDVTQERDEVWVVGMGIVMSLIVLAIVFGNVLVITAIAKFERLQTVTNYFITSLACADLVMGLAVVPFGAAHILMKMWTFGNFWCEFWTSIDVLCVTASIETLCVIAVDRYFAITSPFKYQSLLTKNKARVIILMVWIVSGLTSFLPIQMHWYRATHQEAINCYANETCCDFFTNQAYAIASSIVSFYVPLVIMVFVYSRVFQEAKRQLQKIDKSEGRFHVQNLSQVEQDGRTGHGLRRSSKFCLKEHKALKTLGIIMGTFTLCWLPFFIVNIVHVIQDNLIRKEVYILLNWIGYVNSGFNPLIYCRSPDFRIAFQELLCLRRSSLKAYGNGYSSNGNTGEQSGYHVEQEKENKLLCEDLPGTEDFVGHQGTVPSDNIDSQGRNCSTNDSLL
T3 sequence (P29274 whole entry): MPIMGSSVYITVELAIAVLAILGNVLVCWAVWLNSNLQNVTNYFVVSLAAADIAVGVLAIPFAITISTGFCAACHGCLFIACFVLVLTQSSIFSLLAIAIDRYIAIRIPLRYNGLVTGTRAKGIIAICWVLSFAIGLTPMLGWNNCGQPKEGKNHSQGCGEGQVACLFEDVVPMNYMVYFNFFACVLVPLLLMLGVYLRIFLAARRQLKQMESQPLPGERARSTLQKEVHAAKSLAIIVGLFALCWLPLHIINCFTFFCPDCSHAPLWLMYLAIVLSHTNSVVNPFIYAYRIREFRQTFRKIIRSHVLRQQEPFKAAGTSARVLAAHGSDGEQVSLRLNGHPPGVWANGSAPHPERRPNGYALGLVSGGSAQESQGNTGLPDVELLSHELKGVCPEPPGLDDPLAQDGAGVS
T2 sequence (P28222 whole entry): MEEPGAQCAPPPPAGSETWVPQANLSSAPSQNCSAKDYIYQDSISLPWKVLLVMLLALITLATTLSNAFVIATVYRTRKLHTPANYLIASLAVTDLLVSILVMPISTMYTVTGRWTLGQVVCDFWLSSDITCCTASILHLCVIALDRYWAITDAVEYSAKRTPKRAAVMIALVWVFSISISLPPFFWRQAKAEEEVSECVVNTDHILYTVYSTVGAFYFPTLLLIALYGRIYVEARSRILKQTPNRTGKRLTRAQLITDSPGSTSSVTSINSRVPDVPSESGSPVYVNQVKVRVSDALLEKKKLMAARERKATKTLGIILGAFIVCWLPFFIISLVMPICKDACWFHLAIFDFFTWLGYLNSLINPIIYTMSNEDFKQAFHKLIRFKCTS
Chain of Kdr Kinase (VEGFR2) (P35968 whole entry): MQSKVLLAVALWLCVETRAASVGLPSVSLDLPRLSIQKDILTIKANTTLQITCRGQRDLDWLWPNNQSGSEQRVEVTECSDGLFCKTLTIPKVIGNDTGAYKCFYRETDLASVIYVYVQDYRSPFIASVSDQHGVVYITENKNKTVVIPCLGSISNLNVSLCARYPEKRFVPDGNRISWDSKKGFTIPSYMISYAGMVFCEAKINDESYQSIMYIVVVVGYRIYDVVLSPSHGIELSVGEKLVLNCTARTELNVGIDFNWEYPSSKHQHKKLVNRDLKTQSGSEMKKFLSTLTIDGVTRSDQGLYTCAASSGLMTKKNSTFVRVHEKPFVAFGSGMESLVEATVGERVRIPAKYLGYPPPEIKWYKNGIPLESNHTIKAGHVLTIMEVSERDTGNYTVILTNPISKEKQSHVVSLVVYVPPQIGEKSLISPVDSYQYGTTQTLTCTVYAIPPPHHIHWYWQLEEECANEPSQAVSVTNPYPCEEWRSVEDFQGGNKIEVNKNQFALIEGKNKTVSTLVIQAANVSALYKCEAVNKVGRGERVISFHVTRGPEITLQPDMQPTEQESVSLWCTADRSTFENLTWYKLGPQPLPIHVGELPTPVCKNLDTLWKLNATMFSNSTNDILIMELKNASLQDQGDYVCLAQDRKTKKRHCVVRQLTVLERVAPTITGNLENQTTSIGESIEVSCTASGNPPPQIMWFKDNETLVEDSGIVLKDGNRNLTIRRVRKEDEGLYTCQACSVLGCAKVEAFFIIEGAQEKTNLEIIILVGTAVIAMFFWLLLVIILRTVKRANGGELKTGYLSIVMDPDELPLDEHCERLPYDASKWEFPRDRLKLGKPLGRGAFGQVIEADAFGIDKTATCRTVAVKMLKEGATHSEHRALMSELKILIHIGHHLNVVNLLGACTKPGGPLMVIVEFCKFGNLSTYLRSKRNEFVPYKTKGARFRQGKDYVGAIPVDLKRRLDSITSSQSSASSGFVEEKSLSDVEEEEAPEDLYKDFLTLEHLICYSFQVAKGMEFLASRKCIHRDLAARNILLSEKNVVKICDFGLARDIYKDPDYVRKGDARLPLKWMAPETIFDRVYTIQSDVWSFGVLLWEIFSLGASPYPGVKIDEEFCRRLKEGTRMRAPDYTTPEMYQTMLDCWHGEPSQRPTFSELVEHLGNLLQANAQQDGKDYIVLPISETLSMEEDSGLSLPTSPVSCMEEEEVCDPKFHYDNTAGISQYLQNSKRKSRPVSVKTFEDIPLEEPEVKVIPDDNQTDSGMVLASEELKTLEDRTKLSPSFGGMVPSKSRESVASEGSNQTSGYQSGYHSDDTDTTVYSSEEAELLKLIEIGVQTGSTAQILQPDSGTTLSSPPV
T5 sequence (P21554 whole entry): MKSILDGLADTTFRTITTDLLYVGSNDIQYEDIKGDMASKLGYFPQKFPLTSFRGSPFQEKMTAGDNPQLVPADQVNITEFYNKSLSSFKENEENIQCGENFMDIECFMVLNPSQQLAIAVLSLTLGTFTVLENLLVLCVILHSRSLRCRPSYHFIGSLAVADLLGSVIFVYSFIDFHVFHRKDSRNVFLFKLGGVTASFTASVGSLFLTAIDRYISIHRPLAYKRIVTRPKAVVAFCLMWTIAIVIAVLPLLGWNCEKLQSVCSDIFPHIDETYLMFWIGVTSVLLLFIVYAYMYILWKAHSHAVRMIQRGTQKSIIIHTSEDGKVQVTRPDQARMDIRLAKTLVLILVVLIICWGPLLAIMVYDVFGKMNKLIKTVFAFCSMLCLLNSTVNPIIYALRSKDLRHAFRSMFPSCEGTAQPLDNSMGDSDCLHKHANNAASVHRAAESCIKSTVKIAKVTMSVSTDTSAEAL

Row | SMILES | % (agonism) PF-07208254 ([1]; 100 µM, agonist) | % Inhibition (antagonism) PF-07208254 ([1]; 100 µM, antagonist) | % (agonism) PF-07208254 ([2]; 100 µM) | % (agonism) PF-07208254 (Adenosine A2a Receptor; 100 µM) | % (agonism) PF-07208254 ([3]; 100 µM, agonist) | % Inhibition (antagonism) PF-07208254 ([3]; 100 µM, antagonist) | EC50 (Cannabinoid CB1) | IC50 (Kdr Kinase (VEGFR2)) | % (agonism) PF-07247685 ([1]; 10 µM, agonist) | % Inhibition (antagonism) PF-07247685 ([1]; 10 µM, antagonist) | % (agonism) PF-07247685 ([2]; 10 µM) | % (agonism) PF-07247685 (Adenosine A2a Receptor; 10 µM) | % (agonism) PF-07247685 ([3]; 10 µM, agonist) | % Inhibition (antagonism) PF-07247685 ([3]; 10 µM, antagonist)
1 | O=C(O)c1sc2cc(F)sc2c1Cl [PF-07208254, 3-chloro-5-fluorothieno[3,2-b]thiophene-2-carboxylic acid] | -5% | 10% | 39% | 0% | -4% | -2% | 180 µM | 76 µM | – | – | – | – | – | –
2 | CCC1(COc2ccc(-c3csc(-c4ccccc4C(=O)O)n3)cn2)CC1 [PF-07247685, 2-(4-{6-[(1-ethylcyclopropyl)methoxy]pyridin-3-yl}-1,3-thiazol-2-yl)benzoic acid] | – | – | – | – | – | – | – | – | -6% | 3% | 34% | 1% | -1% | -1%
